Measurements reported in US7186831B2, “5-halo-2-alkyl[1,2,4]triazolo[1,5-a]pyrimidin-7-amines” (priority 2001, dated 2007).

test system: Sphaerotheca fuliginea; experiment: Spaerotheca test (cucumber)/protective; assay type: in vivo; details: protective, application rate 750 g/ha, evaluation 7 days after inoculation
Experimental: Spaerotheca Test (Cucumber)/Protective • Solvent: 49 parts by weight of N,N-dimethylformamide • Emulsifier: 1 part by weight of alkylaryl polyglycol ether To produce a suitable preparation of active compound, 1 part by weight of active compound is mixed with the stated amounts of solvent and emulsifier and the concentrate is diluted with water to the desired concentration. To test for protective activity, the young cucumber plants are sprayed with the active compound preparation at the application rate indicated. 1 day after treatment, the plants are inoculated with a spore suspension of Sphaerotheca fuliginea. The plants are then placed in a greenhouse at a temperature of 23° C. and at a relative humidity of 70%. Evaluation is made 7 days after inoculation. 0% denotes an efficacy corresponding to that of the control, while an efficacy of 100% denotes that no infestation is observed.

Compound | Efficacy in % [%]
CCc1nc2nc(Cl)c(-c3c(F)cc(F)cc3F)c(N[C@@H](C)C(F)(F)F)n2n1 [Example 4] | 93
Fc1cc(F)c(-c2c(Cl)nc3nc(C(F)(F)F)nn3c2NCCC(F)(F)F)c(F)c1 [Example 7] | 100
Fc1cc(F)c(-c2c(Cl)nc3nc(C(F)(F)F)nn3c2NCC(F)(F)F)c(F)c1 [Example 8] | 100

test system: not listed separately; experiment: log P by HPLC; assay type: physicochemical; details: HPLC, gradient method, acetonitrile/0.1% aqueous phosphoric acid; EEC directive 79/831 Annex V. A8

chromatographic logP | logP | Compound
3.39 | – | CCc1nc2nc(Cl)c(-c3c(F)cc(F)cc3F)c(N[C@@H](C)C(F)(F)F)n2n1 [Example 4]
3.76 | – | Fc1cc(F)c(-c2c(Cl)nc3nc(C(F)(F)F)nn3c2NCCC(F)(F)F)c(F)c1 [Example 7]
3.64 | – | Fc1cc(F)c(-c2c(Cl)nc3nc(C(F)(F)F)nn3c2NCC(F)(F)F)c(F)c1 [Example 8]
– | 1.55 | Fc1ccc(-c2c(Cl)nc3nc(C4CC4)nn3c2N2CCC(N3CCOCC3)CC2)c(F)c1 [compound 734]
– | 1.43 | CN1CCN(c2c(-c3ccc(F)cc3F)c(Cl)nc3nc(C4CC4)nn23)CC1 [compound 735]
– | 3.63 | CC1CN(c2c(-c3ccc(F)cc3F)c(Cl)nc3nc(C4CC4)nn23)CC(C)O1 (centres unmarked) [compound 736]
– | 3.61 | Cc1cccc(Nc2c(-c3ccc(F)cc3F)c(Cl)nc3nc(C4CC4)nn23)c1 [compound 737]
– | 3.27 | Fc1ccc(Nc2c(-c3ccc(F)cc3F)c(Cl)nc3nc(C4CC4)nn23)cc1 [compound 738]
– | 3.14 | CC(C)Nc1c(-c2c(F)cccc2F)c(Cl)nc2nc(C3CC3)nn12 [compound 739]
– | 3.66 | Fc1cccc(F)c1-c1c(Cl)nc2nc(C3CC3)nn2c1NC1CCCC1 [compound 740]
– | 3.42 | FC(F)CNc1c(-c2ccc(Cl)cc2Cl)c(Cl)nc2nc(C3CC3)nn12 [compound 741]
– | 3.72 | FC(F)(F)CNc1c(-c2ccc(Cl)cc2Cl)c(Cl)nc2nc(C3CC3)nn12 [compound 742]
– | 3.23 | Fc1cccc(F)c1-c1c(Cl)nc2nc(C3CC3)nn2c1N1OC2CCC1C2 (centres unmarked) [compound 743]
– | 3.44 | CC(C)CNc1c(-c2c(F)cccc2F)c(Cl)nc2nc(C3CC3)nn12 [compound 744]
– | 3.78 | Clc1ccccc1-c1c(Cl)nc2nc(C3CC3)nn2c1NCC1CC1(Cl)Cl (centres unmarked) [compound 745]
– | 4.36 | CC(C)CN(N)c1c(-c2ccc(Cl)cc2Cl)c(Cl)nc2nc(C3CC3)nn12 [compound 750]
– | 3.82 | CC(C)C(C)Nc1c(-c2c(F)cccc2F)c(Cl)nc2nc(C3CC3)nn12 (centres unmarked) [compound 751]
– | 4.31 | C=C(C)CN(CC)c1c(-c2c(F)cccc2F)c(Cl)nc2nc(C3CC3)nn12 [compound 752]
– | 3.47 | Fc1cccc(F)c1-c1c(Cl)nc2nc(C3CC3)nn2c1N1CCCCO1 [compound 753]
– | 3.47 | CC(C)CN(N)c1c(-c2c(F)cccc2F)c(Cl)nc2nc(C3CC3)nn12 [compound 754]
– | 3.28 | C=C(C)CNc1c(-c2c(F)cccc2F)c(Cl)nc2nc(C3CC3)nn12 [compound 760]
– | 3.44 | CCC(C)Nc1c(-c2c(F)cccc2F)c(Cl)nc2nc(C3CC3)nn12 (centres unmarked) [compound 761]

chromatographic logP | logP | Compound
– | 3.9 | CC(C)(C)CNc1c(-c2c(F)cccc2F)c(Cl)nc2nc(C3CC3)nn12 [compound 762]
– | 2.72 | Fc1cccc(F)c1-c1c(Cl)nc2nc(C3CC3)nn2c1NCC(F)F [compound 763]
– | 3.98 | CC(Nc1c(-c2c(F)cccc2F)c(Cl)nc2nc(C3CC3)nn12)C(F)(F)F (centres unmarked) [compound 764]
– | 2.8 | Cc1nc2nc(Cl)c(-c3ccc(F)cc3Cl)c(NCC(F)(F)F)n2n1 [compound 766]
– | 5.25 | C=C(C)CN(CC)c1c(-c2ccc(Cl)cc2Cl)c(Cl)nc2nc(C3CC3)nn12 [compound 769]
– | 3.32 | Fc1cccc(F)c1-c1c(Cl)nc2nc(C3CC3)nn2c1N1CC=CCO1 [compound 770]
– | 3.04 | Fc1cccc(F)c1-c1c(Cl)nc2nc(C3CC3)nn2c1NCC(F)(F)F [compound 771]
– | 3.65 | CC(C)CN(N)c1c(-c2c(F)cc(F)cc2F)c(Cl)nc2nc(C3CC3)nn12 [compound 773]
– | 2.7 | CC(Nc1c(-c2ccc(Cl)cc2Cl)c(Cl)nc2nc(C3CC3)nn12)C(=O)O (centres unmarked) [compound 774]
– | 3.41 | Cc1nc2nc(Cl)c(-c3ccc(Cl)cc3Cl)c(N3OC4CCC3C4)n2n1 (centres unmarked) [compound 780]
– | 4.56 | C=C(C)CN(CC)c1c(-c2ccc(Cl)cc2Cl)c(Cl)nc2nc(C)nn12 [compound 783]
– | 3.35 | Cc1nc2nc(Cl)c(-c3ccc(Cl)cc3Cl)c(N3CCCCN3)n2n1 [compound 784]
– | 3.87 | Fc1ccc(-c2c(Cl)nc3nc(C4CC4)nn3c2N2CCCCO2)c(Cl)c1 [compound 785]
– | 3.56 | Fc1cc(F)c(-c2c(Cl)nc3nc(C4CC4)nn3c2N2CC=CCO2)c(F)c1 [compound 786]
– | 4.21 | CC(C)=NN(CC(C)C)c1c(-c2c(F)cccc2F)c(Cl)nc2nc(C3CC3)nn12 [compound 787]
– | 4.06 | Cc1nc2nc(Cl)c(-c3ccc(Cl)cc3Cl)c(NC(C)C(C)C)n2n1 (centres unmarked) [compound 788]
– | 3.68 | Cc1nc2nc(Cl)c(-c3ccc(Cl)cc3Cl)c(NCC(C)C)n2n1 [compound 789]
– | 4.3 | CC(C)CNc1c(-c2ccc(Cl)cc2Cl)c(Cl)nc2nc(C3CC3)nn12 [compound 790]
– | 3.74 | CC(C)CN(N)c1c(-c2c(F)cccc2Cl)c(Cl)nc2nc(C3CC3)nn12 [compound 791]
– | 2.56 | CC(=O)NC1CCN(c2c(-c3ccc(F)cc3F)c(Cl)nc3nc(C(F)(F)F)nn23)C1 (centres unmarked) [compound 793]
– | 1.67 | CN(C)C1CCN(c2c(-c3ccc(F)cc3F)c(Cl)nc3nc(C(F)(F)F)nn23)C1 (centres unmarked) [compound 795]
– | 3.8 | Fc1ccc(-c2c(Cl)nc3nc(C(F)(F)F)nn3c2N2CCC3(CC2)OCCO3)c(F)c1 [compound 796]

chromatographic logP | logP | Compound
– | 5.18 | CC1CC(C)CN(c2c(-c3ccc(F)cc3F)c(Cl)nc3nc(C(F)(F)F)nn23)C1 (centres unmarked) [compound 797]
– | 4.8 | CC1CCN(c2c(-c3ccc(F)cc3F)c(Cl)nc3nc(C(F)(F)F)nn23)CC1 [compound 798]
– | 3.07 | OC1CCCN(c2c(-c3ccc(F)cc3F)c(Cl)nc3nc(C(F)(F)F)nn23)C1 (centres unmarked) [compound 799]
– | 5.03 | CC1(C)CCN(c2c(-c3ccc(F)cc3F)c(Cl)nc3nc(C(F)(F)F)nn23)CC1 [compound 800]
– | 4.95 | CCC1=CCN(c2c(-c3ccc(F)cc3F)c(Cl)nc3nc(C(F)(F)F)nn23)CC1 [compound 801]
– | 4.55 | CC1=CCCN(c2c(-c3ccc(F)cc3F)c(Cl)nc3nc(C(F)(F)F)nn23)C1 [compound 802]
– | 3.81 | COC(=O)C1CCN(c2c(-c3ccc(F)cc3F)c(Cl)nc3nc(C(F)(F)F)nn23)CC1 [compound 803]
– | 4.32 | COC(=O)C1CCCCN1c1c(-c2ccc(F)cc2F)c(Cl)nc2nc(C(F)(F)F)nn12 (centres unmarked) [compound 804]
– | 4.43 | Fc1ccc(-c2c(Cl)nc3nc(C(F)(F)F)nn3c2N2CCC(C(F)(F)F)CC2)c(F)c1 [compound 805]
– | 2.71 | CC(=O)NC1CCN(c2c(-c3ccc(F)cc3F)c(Cl)nc3nc(C(F)(F)F)nn23)CC1 [compound 806]
– | 1.65 | CN1CCN(c2c(-c3ccc(F)cc3F)c(Cl)nc3nc(C(F)(F)F)nn23)CC1 [compound 807]
– | 4.1 | CC1CN(c2c(-c3ccc(F)cc3F)c(Cl)nc3nc(C(F)(F)F)nn23)CC(C)O1 (centres unmarked) [compound 808]
– | 4.45 | Fc1ccc(-c2c(Cl)nc3nc(C(F)(F)F)nn3c2N2CCCCC2)c(F)c1 [compound 809]
– | 4.04 | Fc1ccc(-c2c(Cl)nc3nc(C(F)(F)F)nn3c2N2CCSCC2)c(F)c1 [compound 810]
– | 3.99 | Cc1ccccc1Nc1c(-c2ccc(F)cc2F)c(Cl)nc2nc(C(F)(F)F)nn12 [compound 811]
– | 4.04 | Cc1cccc(Nc2c(-c3ccc(F)cc3F)c(Cl)nc3nc(C(F)(F)F)nn23)c1 [compound 812]
– | 4.08 | Cc1ccc(Nc2c(-c3ccc(F)cc3F)c(Cl)nc3nc(C(F)(F)F)nn23)cc1 [compound 813]
– | 3.69 | Fc1ccc(Nc2c(-c3ccc(F)cc3F)c(Cl)nc3nc(C(F)(F)F)nn23)cc1 [compound 814]
– | 4.35 | Fc1ccc(-c2c(Cl)nc3nc(C(F)(F)F)nn3c2N2CCc3ccccc3C2)c(F)c1 [compound 815]
– | 3.71 | Cc1nc2nc(Cl)c(-c3ccc(Cl)cc3Cl)c(N(N)CC(C)C)n2n1 [compound 816]
– | 3.67 | Cc1nc2nc(Cl)c(-c3ccc(Cl)cc3Cl)c(N3CCCCO3)n2n1 [compound 817]
– | 4.73 | CC(C)CC(C)Nc1c(-c2ccc(F)cc2F)c(Cl)nc2nc(C(F)(F)F)nn12 (centres unmarked) [compound 818]

test system: Podosphaera leucotricha; experiment: Podosphaera test (apple)/protective; assay type: in vivo; details: protective, application rate 100 g/ha, evaluation 10 days after inoculation
Experimental: Podosphaera Test (Apple)/Protective • Solvent: 24.5 parts by weight of acetone • 24.5 parts by weight of dimethylacetamide • Emulsifier: 1 part by weight of alkylaryl polyglycol ether
To produce a suitable preparation of active compound, 1 part by weight of active compound is mixed with the stated amounts of solvent and emulsifier and the concentrate is diluted with water to the desired concentration.
To test for protective activity, the young plants are sprayed with the active compound preparation at the application rate indicated. After the spray coating has dried on, the plants are inoculated with an aqueous spore suspension of the apple mildew causative organism Podosphaera leucotricha. The plants are then placed in a greenhouse at about 23° C. and at a relative humidity of about 70%.
Evaluation is made 10 days after inoculation. 0% denotes an efficacy corresponding to that of the control, while an efficacy of 100% denotes that no infestation is observed.

Compound | Efficacy in % [%]
Fc1cc(F)c(-c2c(Cl)nc3nc(C(F)(F)F)nn3c2NCCC(F)(F)F)c(F)c1 [Example 7] | 100
Fc1cc(F)c(-c2c(Cl)nc3nc(C(F)(F)F)nn3c2NCC(F)(F)F)c(F)c1 [Example 8] | 100
